Data: patent US20050261264A1, “Rare-earth ternary complex” (priority 2000, published 2005)

Columns and labels:
Type in all cases: physicochemical
[1] = Number of moles of bound water per mole of complex (TG-DTA); settings: for Bound water (number of moles of bound water per mole of complex): Table 1, dried samples for the ternary complexes
Procedure: The number of moles of bound water per mole of complex was measured using a TG-DTA 2000 from MAC Science.
A 20 g quantity of Eu(PMS)3 was added to 100 mL of isopropanol, then 43 g ([…] the molar amount of the Eu(PMS)3) of triphenylphosphine oxide (hereinafter referred to as TPPO) was added, and the system was refluxed for 3 hours, and then gradually cooled. The resulting white powder was filtered off. The white powder thus obtained was washed with hot n-hexane, and recrystallized with water-methanol to obtain 44 g of Eu(PMS)3(TPPO)8 in the form of white acicular crystals (yield: 85%). The TG-DTA was measured for these crystals, and it was found from the weight reduction at 100° C. that the number of moles of bound water per mole of complex was 2.93. The IR, NMR, UV absorption characteristics, and elemental analysis results for the obtained Eu(PMS)3(TPPO)8(H2O)2.93 are given below.
Eu(PMS)3(TPPO)8(H2O)2.93 obtained by the above synthesis method was dried in vacuo for 3 hours at 140° C. and a reduced pressure of […]. TG-DTA measurement for the resulting white powder was carried out to obtain a weight reduction at 100° C. It was found from the obtained value that the number of moles of bound water per mole of complex was 0.18.

[2] = Miscibility with a polymer matrix, visual evaluation; set-up: key to Miscibility, PMMA: ⊚: dissolves up to 30 wt %; ◯: dissolves up to 5 wt %; Δ: disperses up to 5 wt %, but there is turbidity; X: repelled at the polymer surface
Procedure: (§1) The miscibility of the rare earth complex with various media was evaluated as follows.
2) Miscibility with a Polymer Matrix
The rare earth complex serving as the sample was added in the concentrations listed with the evaluation criteria below relative to various media, and the miscibility was visually evaluated according to the following criteria. • ⊚: dissolves up to 30 wt % • ◯: dissolves up to 5 wt % • Δ: disperses up to 5 wt %, but there is turbidity • X: repelled at the polymer surface

[3] = Miscibility with solvents, visual evaluation at 5 wt %; set-up: key: ⊚: dissolves at room temperature; ◯: dissolves when heated for 5 minutes at 40° C.; Δ: dissolves under heating, but cooling precipitates crystals; X: does not dissolve; settings: complex added at 5 wt %
Procedure: as §1
1) Miscibility with Solvents

[4] = Luminescence quantum yield and luminescence intensity in solution
Procedure: (§2) The intensity of luminescence and the luminescence quantum yield, the quotient of dividing the number of photons emitted from a sample by the number of photons absorbed into the sample, were measured with an SS-25 from JASCO Corporation.
The luminescence quantum yield of an acetonitrile solution of the Eu(PMS)3(TPPO)8 obtained in Example 1 (europium ion concentration: 0.05 mol/L) was measured (excitation wavelength: 465 nm, maximum luminescence wavelength: 612 nm, luminescence wavelength used in measurement: 612 nm).
The solutions prepared in Examples 12 to 14 and Comparative Examples 7 to 9 and Comparative Example B were measured for luminescence intensity at the respective maximum luminescence wavelengths.
The relative luminescence intensity of the solutions used in Examples 12 to 14 and Comparative Example B: (luminescence intensity in each of Examples 12 to 14)/(luminescence intensity in Comparative Example 7) was calculated, letting 1 be the luminescence intensity in Comparative Example 7 (solution of a rare earth complex in which the ligand Z was not coordinated).
Similarly, the relative luminescence intensity in Comparative Example 9: (luminescence intensity in Comparative Example 9)/(luminescence intensity in Comparative Example 8) was calculated, letting 1 be the luminescence intensity in Comparative Example 8 (solution of a known β-diketone-type of rare earth complex in which the ligand Z was not coordinated). The relative luminescence intensity of the solution used in Comparative Example B was 1.6 times.
The luminescence quantum yield of an acetone-d6 solution of the Nd(PMS)3(TPPO)8 obtained in Example 2 (neodymium ion concentration: 0.05 mol/L) was measured (excitation wavelength: 585 nm, maximum luminescence wavelength: 1064 nm, luminescence wavelength used in measurement: 1064 nm).
The solutions prepared in Examples 15 and 16 and Comparative Examples 10 were measured for luminescence intensity at the respective maximum luminescence wavelengths. The relative luminescence intensity in Examples 15 and 16: (luminescence intensity in each of Examples 15 and 16)/(luminescence intensity in Comparative Example 10) was calculated, letting 1 be the luminescence intensity in Comparative Example 10 (rare earth complex in which the ligand Z was not coordinated).

[5] = Luminescence quantum yield and luminescence intensity in PMMA polymer matrix composition; settings: PMMA rod; for Luminescence quantum yield: rare earth ion 0.7 wt %
Procedure: as §2
A 1 mL quantity of refined anhydrous methyl methacrylate (MMA), 0.5 mg of AIBN, and 148 mg (0.7 wt %) as the rare earth ion concentration) of the Eu (PMS)3 (TPPO)8 obtained in Example 1 were mixed, the mixture was transferred to a Pyrex tube, and the inside of the tube was deaerated and then sealed. By reacting for 5 hours at 60° C., the polymerization of MMA was carried out. The resulting PMMA containing Eu(PMS)3 (TPPO)8 was taken out of the Pyrex tube, and a rod-shaped polymer matrix composition was obtained.
(§3) The polymer matrix compositions prepared in Examples 17 to 19 and Comparative Example 11 were measured for luminescence intensity at the respective maximum luminescence wavelengths. The relative luminescence intensity in Examples 17 to 19: (luminescence intensity in each of Examples 17 to 19)/(luminescence intensity in Comparative Example 11) was calculated, letting 1 be the luminescence intensity in Comparative Example 11 (rare earth complex in which the ligand Z was not coordinated).
A rod-shaped polymer matrix composition containing […] was obtained in the same manner as in Example 17, except that 148 mg (rare earth ion concentration: 0.7 wt %) of the Nd(PMS)3 (TPPO)8 obtained in Example 2 was used instead of Eu(PMS)3 (TPPO)8.
as §3, with “20 and 21” for “17 to 19”, “12” for “11”, “20 and 21:” for “17 to 19:”, “20 and 21)/(luminescence” for “17 to 19)/(luminescence”, “12)” for “11)”

[6] = acetonitrile solution, Eu 0.05 mol/L, relative to Eu(HFA)3 (Comparative Example 8) = 1
[7] = acetonitrile solution, Eu 0.05 mol/L, relative to Eu(PMS)3 (Comparative Example 7) = 1
[8] = acetonitrile solution, europium ion 0.05 mol/L, excitation 465 nm, luminescence 612 nm
[9] = before drying (crystals as obtained), weight reduction at 100° C.
[10] = Eu 0.7 wt %, relative to Eu(PMS)3 (Comparative Example 11) = 1
[11] = excitation 465 nm, luminescence 612 nm

Row | SMILES | Bound water (number of moles of bound water per mole of complex) [1] | Miscibility, Epoxy resin [2] | Miscibility, Nafion [2] | Miscibility, PMMA [2] | Miscibility, Acetone [3] | Miscibility, Chloroform [3] | Miscibility, Toluene [3] | Miscibility, Water [3] | Relative luminescence intensity [4, 6] | Relative luminescence intensity [4, 7] | Luminescence quantum yield [4, 8] [%] | Relative luminescence intensity ([5]; Nd 0.7 wt %, relative to Nd(PMS)3 (Comparative Example 12) = 1) | Luminescence quantum yield ([5]; excitation 585 nm, luminescence 1064 nm) [%] | Relative luminescence intensity ([4]; acetone-d6 solution, Nd 0.05 mol/L, relative to Nd(PMS)3 (Comparative Example 10) = 1) | Luminescence quantum yield ([4]; acetone-d6 solution, neodymium ion 0.05 mol/L, excitation 585 nm, luminescence 1064 nm) [%] | Number of moles of bound water per mole of complex ([1]; after drying in vacuo at 140° C.) | Number of moles of bound water per mole of complex [1, 9] | Relative luminescence intensity [5, 10] | Luminescence quantum yield [5, 11] [%]
1 | O=C(C=C([O-])C(F)(F)F)C(F)(F)F.O=C(C=C([O-])C(F)(F)F)C(F)(F)F.O=C(C=C([O-])C(F)(F)F)C(F)(F)F.O=P(c1ccccc1)(c1ccccc1)c1ccccc1.O=P(c1ccccc1)(c1ccccc1)c1ccccc1.[Eu+3] [Eu(HFA)3(TPPO)2, reference compound] | 0.00 | ◯ (dissolves up to 5 wt %) | Δ (disperses up to 5 wt %, but there is turbidity) | Δ (disperses up to 5 wt %, but there is turbidity) | ⊚ | ◯ | ◯ | X | 4.6 |  |  |  |  |  |  |  |  |  | 
2 | O=S(=O)([N-]S(=O)(=O)C(F)(F)F)C(F)(F)F.O=S(=O)([N-]S(=O)(=O)C(F)(F)F)C(F)(F)F.O=S(=O)([N-]S(=O)(=O)C(F)(F)F)C(F)(F)F.[2H]C([2H])([2H])S(=O)C([2H])([2H])[2H].[2H]C([2H])([2H])S(=O)C([2H])([2H])[2H].[2H]C([2H])([2H])S(=O)C([2H])([2H])[2H].[2H]C([2H])([2H])S(=O)C([2H])([2H])[2H].[2H]C([2H])([2H])S(=O)C([2H])([2H])[2H].[2H]C([2H])([2H])S(=O)C([2H])([2H])[2H].[2H]C([2H])([2H])S(=O)C([2H])([2H])[2H].[2H]C([2H])([2H])S(=O)C([2H])([2H])[2H].[Eu+3] [Eu(PMS)3 (DMSO-d6)8, reference compound] |  |  |  |  |  |  |  |  |  | 1.6 | 44.0 |  |  |  |  |  |  |  | 
3 | O=S(=O)([N-]S(=O)(=O)C(F)(F)F)C(F)(F)F.O=S(=O)([N-]S(=O)(=O)C(F)(F)F)C(F)(F)F.O=S(=O)([N-]S(=O)(=O)C(F)(F)F)C(F)(F)F.[Nd+3] [Nd(PMS)3, reference compound] | 2.32 | Δ (disperses up to 5 wt %, but there is turbidity) | Δ (disperses up to 5 wt %, but there is turbidity) | X | ⊚ | X | X | ⊚ |  |  |  | 1.0 | <0.1 | 1.0 | 0.8 |  |  |  | 
4 | O=P(c1ccccc1)(c1ccccc1)c1ccccc1.O=P(c1ccccc1)(c1ccccc1)c1ccccc1.O=P(c1ccccc1)(c1ccccc1)c1ccccc1.O=P(c1ccccc1)(c1ccccc1)c1ccccc1.O=P(c1ccccc1)(c1ccccc1)c1ccccc1.O=P(c1ccccc1)(c1ccccc1)c1ccccc1.O=P(c1ccccc1)(c1ccccc1)c1ccccc1.O=P(c1ccccc1)(c1ccccc1)c1ccccc1.O=S(=O)([N-]S(=O)(=O)C(F)(F)F)C(F)(F)F.O=S(=O)([N-]S(=O)(=O)C(F)(F)F)C(F)(F)F.O=S(=O)([N-]S(=O)(=O)C(F)(F)F)C(F)(F)F.[Eu+3] [Eu(PMS)3(TPPO)8] | 0.18 | ◯ (dissolves up to 5 wt %) | ◯ (dissolves up to 5 wt %) | ◯ (dissolves up to 5 wt %) | ⊚ | ⊚ | ◯ | X |  | 45.1 | 5.6 |  |  |  |  | 0.18 | 2.93 | 15466 | 19.0
5 | O=C(C=C([O-])C(F)(F)F)C(F)(F)F.O=C(C=C([O-])C(F)(F)F)C(F)(F)F.O=C(C=C([O-])C(F)(F)F)C(F)(F)F.[Eu+3] [Eu(HFA)3, reference compound] | 2.00 | ◯ (dissolves up to 5 wt %) | Δ (disperses up to 5 wt %, but there is turbidity) | X | ⊚ | X | X | X | 1.0 |  | 8.0 |  |  |  |  |  |  |  | 
6 | O=S(=O)([N-]S(=O)(=O)C(F)(F)F)C(F)(F)F.O=S(=O)([N-]S(=O)(=O)C(F)(F)F)C(F)(F)F.O=S(=O)([N-]S(=O)(=O)C(F)(F)F)C(F)(F)F.O=S(c1ccccc1)c1ccccc1.O=S(c1ccccc1)c1ccccc1.O=S(c1ccccc1)c1ccccc1.O=S(c1ccccc1)c1ccccc1.O=S(c1ccccc1)c1ccccc1.O=S(c1ccccc1)c1ccccc1.O=S(c1ccccc1)c1ccccc1.O=S(c1ccccc1)c1ccccc1.[Eu+3] [Eu(PMS)3(DPSO)8] | 0.00 | ◯ (dissolves up to 5 wt %) | ◯ (dissolves up to 5 wt %) | ◯ (dissolves up to 5 wt %) | ⊚ | ◯ | ◯ | X |  | 41.7 | 32.0 |  |  |  |  |  | water was not coordinated | 710 | 39.0
